Results reported in article PMC8248988, “A signal capture and proofreading mechanism for the KDEL-receptor explains selectivity and dynamic range in ER retrieval” (eLife, 2021).

Assays:
Assay type in all cases: cell-based
Settings in all cases: COS-7 cells
human KDELR1 N54R = target: T1, human KDELR1 N54R (Homo sapiens, UniProt P24390, N54R); assay: ER retrieval assay, KDELR1 N54R-GFP
T1 construct: expressed in transfected cells; host or cells: COS-7
Text: (§1) To create KDELR1-GFP and KDELR2-GFP, the reading frames for Homo sapiens KDELR1 (Uniprot: P24390) and KDELR2 (Uniprot: P33947) were cloned into the pEF5/FRT low level mammalian expression vector with a C-terminal 20 amino acid linker made up of 5 copies of Gly-Ser-Ser-Ser followed by GFP. Specific point mutations were introduced using the Quickchange protocol (Stratagene) and are described in the key resources table and figures. To create the mScarlet-KDEL^sec ligand construct, mScarlet with an N-terminal hGH signal peptide and the 16 C-terminal residues of human BiP at its C-terminus, containing the KDEL signal, was cloned into the pcDNA3.1 vector. […] The Golgi marker protein TGN46 was detected by antibody (sheep anti-TGN46 AHP500G; AbD Serotec) and an Alexa 647 conjugated secondary anti-sheep secondary (A-21448, Invitrogen). In Figure 1d and e, endogenous KDELR was detected by antibody (mouse anti-KDELR ADI-VAA-PT048; Enzo Life Sciences) and Alexa 488 conjugated anti-mouse secondary antibody (A-21202, Invitrogen). For retrieval assays in other figures, KDELR-GFP fusion proteins were directly detected by fluorescence. The mScarlet-xDEL fusion proteins were directly detected by fluorescence. […] The fraction of KDEL receptor in the Golgi apparatus was calculated by dividing the Golgi signal by the total cell signal. […]

human KDELR1 D50N/E117Q = target: T2, human KDELR1 D50N/E117Q (Homo sapiens, UniProt P24390, D50N/E117Q); assay: ER retrieval assay, KDELR1 D50N/E117Q-GFP
T2 construct: expressed in transfected cells; host or cells: COS-7
Text: as §1

human KDELR1 E117N = target: T3, human KDELR1 E117N (Homo sapiens, UniProt P24390, E117N); assay: ER retrieval assay, KDELR1 E117N-GFP
T3 construct: expressed in transfected cells; host or cells: COS-7
Text: as §1

human KDELR1 D50N/N54K = target: T4, human KDELR1 D50N/N54K (Homo sapiens, UniProt P24390, D50N/N54K); assay: ER retrieval assay, KDELR1 D50N/N54K-GFP
T4 construct: expressed in transfected cells; host or cells: COS-7
Text: as §1

human KDELR1 E117Q = target: T5, human KDELR1 E117Q (Homo sapiens, UniProt P24390, E117Q); assay: ER retrieval assay, KDELR1 E117Q-GFP
T5 construct: expressed in transfected cells; host or cells: COS-7
Text: as §1

T3 sequence (P24390 whole entry E117N): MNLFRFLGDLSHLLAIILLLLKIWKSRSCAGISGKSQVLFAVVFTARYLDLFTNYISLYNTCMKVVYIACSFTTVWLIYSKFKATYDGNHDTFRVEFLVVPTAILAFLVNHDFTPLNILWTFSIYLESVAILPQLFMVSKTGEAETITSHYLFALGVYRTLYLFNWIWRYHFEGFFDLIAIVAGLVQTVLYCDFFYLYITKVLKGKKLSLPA
T4 sequence (P24390 whole entry D50N/N54K): as the sequence (P24390 whole entry E117N) above, with D50N, N54K, N117E counted along it
T2 sequence (P24390 whole entry D50N/E117Q): as the sequence (P24390 whole entry E117N) above, with D50N, N117Q counted along it
T5 sequence (P24390 whole entry E117Q): as the sequence (P24390 whole entry E117N) above, with N117Q counted along it
T1 sequence (P24390 whole entry N54R): as the sequence (P24390 whole entry E117N) above, with N54R, N117E counted along it

## ADEL [pcDNA3.1 hGHss-mScarlet-H. sapiens BiP639-654K651A (ADEL^SEC), secreted mScarlet fusion with human BiP C-terminus, ADEL signal]
Human KDELR1 N54R
  ligand-induced receptor retrieval to the ER (in words): did not result in ADEL or DDEL recognition
Human KDELR1 D50N/E117Q
  ligand-induced receptor retrieval to the ER (in words): switched specificity towards ADEL and DDEL
Human KDELR1 E117N
  ligand-induced receptor retrieval to the ER (in words): move to the ER
Human KDELR1 D50N/N54K
  ligand-induced receptor retrieval to the ER (in words): gave a response
Human KDELR1 E117Q
  ligand-induced receptor retrieval to the ER (in words): move to the ER
